Our source for the IC50, EC50 and AC50 values is ChEMBL document CHEMBL1201862, “PubChem BioAssay data set” (2004).

Activity calls are given as the source filed them. Bounds are passed on as bounds.

One may read the IC50 as the concentration needed to halve the response being measured. For orientation: EC50 means the concentration needed to bring the measured effect to its halfway point. What is called AC50 is the concentration giving half of the maximal activity seen.

In test [1] the target is T1, Dual specificity protein phosphatase 3 (Homo sapiens, UniProt P51452). In words: SAR VHR1 absorbance Assay for In Vitro dose response studies. [Related pubchem assays (depositor defined):AID1654, AID1661, AID1878, AID1992, AID2004].
The target in test [2] is T1, Dual specificity protein phosphatase 3. In words: SAR VHR1 Fluorescent Assay for In Vitro dose response studies. [Related pubchem assays (depositor defined):AID1654, AID1661, AID1878, AID1992, AID2004, AID2070, AID2085]. In kind it is functional.
For test [3], the target named is T2, Tyrosine-protein phosphatase non-receptor type 7 (Homo sapiens, UniProt P35236).
T2 sequence (P35236 whole entry): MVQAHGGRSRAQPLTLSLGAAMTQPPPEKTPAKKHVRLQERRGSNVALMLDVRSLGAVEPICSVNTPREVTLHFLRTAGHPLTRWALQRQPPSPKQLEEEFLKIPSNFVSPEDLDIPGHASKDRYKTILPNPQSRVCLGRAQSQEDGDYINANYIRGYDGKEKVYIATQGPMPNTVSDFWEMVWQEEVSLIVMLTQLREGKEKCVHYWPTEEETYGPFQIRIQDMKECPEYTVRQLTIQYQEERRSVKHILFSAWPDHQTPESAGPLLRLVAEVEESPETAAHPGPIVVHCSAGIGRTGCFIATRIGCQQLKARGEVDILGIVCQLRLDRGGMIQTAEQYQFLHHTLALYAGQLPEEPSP
Kind of test: redox-dependent HePTP inhibition, mechanism study, biochemical, fluorescence (AID 2068). In kind it is functional.

Test [4] has as its target T3, Dual specificity protein phosphatase 6 (Rattus norvegicus, UniProt Q64346).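 Also: confirmatory in vitro dose-response testing of MKP-3 inhibition; recombinant His-tagged MKP-3 made in E. coli BL21 with OMFP substrate.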
T3 sequence (Q64346 whole entry): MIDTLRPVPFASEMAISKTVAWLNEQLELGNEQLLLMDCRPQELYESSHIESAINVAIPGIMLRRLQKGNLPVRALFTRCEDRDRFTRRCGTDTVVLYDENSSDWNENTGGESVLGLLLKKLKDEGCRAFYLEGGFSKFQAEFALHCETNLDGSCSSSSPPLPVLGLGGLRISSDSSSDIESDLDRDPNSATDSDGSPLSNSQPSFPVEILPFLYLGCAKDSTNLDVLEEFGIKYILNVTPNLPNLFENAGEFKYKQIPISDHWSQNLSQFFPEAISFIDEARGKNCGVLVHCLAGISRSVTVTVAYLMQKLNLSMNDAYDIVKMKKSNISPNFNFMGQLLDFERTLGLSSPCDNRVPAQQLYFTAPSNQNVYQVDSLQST
In kind it is functional.

The test system of another test is T-cell. Kind of test: inhibitors of CD8+ T cell–vesicle binding, dose response, mouse 2C CD8+ T cells, flow cytometry (AID 485284). In kind it is functional.
In test [5] the target is T4, Cannabinoid receptor 2 (Homo sapiens, UniProt P34972). Kind of test: SAR analysis of antagonists of the Cannabinoid Receptor 2 using an Image-Based Assay - Set 2. [Related pubchem assays (depositor defined):AID1961, AID1965]. In kind it is functional.
Test [6] addresses G-protein coupled receptor 55 (Homo sapiens, UniProt Q9Y2T6). Kind of test: SAR analysis of selective Agonists of GPR55 using an Image-Based Assay - Set 2. [Related pubchem assays (depositor defined):AID1961, AID1965]. In kind it is functional.
The target of test [7] is T4, Cannabinoid receptor 2. Kind of test: SAR analysis of agonists of the Cannabinoid Receptor 2 using an Image-Based Assay - Set 2. [Related pubchem assays (depositor defined):AID1961, AID1965]. In kind it is functional.
Test [8] addresses T5, G-protein coupled receptor 35 (Homo sapiens, UniProt Q9HC97). In words: SAR analysis of Agonists of the GPR35 Receptor using an Image-Based Assay - Set 3. [Related pubchem assays (depositor defined):AID1961, AID1965]. In kind it is functional.
The target in test [9] is T6, Cannabinoid receptor 1 (Homo sapiens, UniProt P21554). Kind of test: SAR analysis of antagonists of the Cannabinoid Receptor 1 using an Image-Based Assay - Set 3. [Related pubchem assays (depositor defined):AID1961, AID1965]. In kind it is functional.
The target of test [10] is T6, Cannabinoid receptor 1. In words: SAR analysis of agonists of the Cannabinoid Receptor 1 using an Image-Based Assay - Set 3. [Related pubchem assays (depositor defined):AID1961, AID1965]. In kind it is functional.
Test [11] addresses T5, G-protein coupled receptor 35. Kind of test: SAR analysis of Antagonists of the GPR35 Receptor using an Image-Based Assay - Set 4. [Related pubchem assays (depositor defined):[…]]. In kind it is functional.
Test [12] in a line: NIH-3T3 fibroblast cytotoxicity, dose response, cytotoxicity control, cell-based, fluorescence, Alamar Blue, secondary assay (AID 2327).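 Also: NIH-3T3 mouse fibroblasts cultured with fluconazole at 8 µg/mL.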 In kind it is functional.
Test [13] in a line: cells. In kind it is functional, cell-based.
The nature of test [14]: C. albicans growth with fluconazole, confirmation, fluorescence, retest (AID 2467). In kind it is functional, cell-based.
Test [15] can be described thus: cells. In kind it is functional, cell-based. This is another data set of the same source.
Test [16] can be described thus: Luminescence Cell-Based Dose Retest to Confirm Inhibitors of Cancer Stem Cells. [Related pubchem assays (depositor defined):AID2717, AID2721]. In kind it is functional. The following applies: Homo sapiens.
Test [17] concerns the target E3 ubiquitin-protein ligase Mdm2/Protein Mdm4 (Homo sapiens, UniProt O15151+Q00987). Kind of test: Mdm2-MdmX interaction inhibitors, dose response, luminescence detection (AID 504593). In kind it is functional.
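For AC50 in this document: cells exposed to compound for roughly 70 hours or longer before luminescence read.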

T6 sequence (P21554 whole entry): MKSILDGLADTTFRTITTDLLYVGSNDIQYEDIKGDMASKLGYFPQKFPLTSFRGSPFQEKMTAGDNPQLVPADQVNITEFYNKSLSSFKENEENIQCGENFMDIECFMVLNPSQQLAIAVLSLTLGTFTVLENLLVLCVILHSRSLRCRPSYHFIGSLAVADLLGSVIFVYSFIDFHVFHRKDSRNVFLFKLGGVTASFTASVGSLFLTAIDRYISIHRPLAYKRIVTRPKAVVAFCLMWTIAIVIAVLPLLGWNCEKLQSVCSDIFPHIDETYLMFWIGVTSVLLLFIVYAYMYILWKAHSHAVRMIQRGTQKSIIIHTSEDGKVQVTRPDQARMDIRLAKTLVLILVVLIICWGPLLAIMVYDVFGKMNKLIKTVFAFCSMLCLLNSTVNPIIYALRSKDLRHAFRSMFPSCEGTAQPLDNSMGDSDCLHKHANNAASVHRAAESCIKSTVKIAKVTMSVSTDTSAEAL
T1 sequence (P51452 whole entry): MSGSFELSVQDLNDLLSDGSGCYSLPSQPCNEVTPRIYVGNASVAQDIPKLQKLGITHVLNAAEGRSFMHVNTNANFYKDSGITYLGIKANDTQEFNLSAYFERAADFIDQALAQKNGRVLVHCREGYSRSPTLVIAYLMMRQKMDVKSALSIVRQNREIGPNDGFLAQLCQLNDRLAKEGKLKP
T5 sequence (Q9HC97 whole entry): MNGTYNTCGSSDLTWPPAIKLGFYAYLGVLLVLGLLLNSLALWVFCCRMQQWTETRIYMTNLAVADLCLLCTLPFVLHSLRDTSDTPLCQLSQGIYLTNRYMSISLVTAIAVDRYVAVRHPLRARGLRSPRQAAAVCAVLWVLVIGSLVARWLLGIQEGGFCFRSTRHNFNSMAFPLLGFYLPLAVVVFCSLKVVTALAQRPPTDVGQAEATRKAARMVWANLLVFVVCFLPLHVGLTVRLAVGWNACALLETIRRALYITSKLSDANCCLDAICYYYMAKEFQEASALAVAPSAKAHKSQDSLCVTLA
T4 sequence (P34972 whole entry): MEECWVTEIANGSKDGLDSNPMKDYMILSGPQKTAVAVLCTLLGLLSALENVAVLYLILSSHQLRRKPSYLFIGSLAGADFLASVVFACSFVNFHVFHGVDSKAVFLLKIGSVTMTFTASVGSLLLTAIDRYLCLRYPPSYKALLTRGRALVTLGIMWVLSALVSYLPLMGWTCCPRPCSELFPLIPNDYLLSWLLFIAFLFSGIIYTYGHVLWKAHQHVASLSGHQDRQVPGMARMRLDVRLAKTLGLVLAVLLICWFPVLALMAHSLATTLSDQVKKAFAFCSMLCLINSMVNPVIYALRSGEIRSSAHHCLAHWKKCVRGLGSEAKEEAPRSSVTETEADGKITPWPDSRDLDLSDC
Chain of E3 ubiquitin-protein ligase Mdm2/Protein Mdm4 (Q00987 whole entry): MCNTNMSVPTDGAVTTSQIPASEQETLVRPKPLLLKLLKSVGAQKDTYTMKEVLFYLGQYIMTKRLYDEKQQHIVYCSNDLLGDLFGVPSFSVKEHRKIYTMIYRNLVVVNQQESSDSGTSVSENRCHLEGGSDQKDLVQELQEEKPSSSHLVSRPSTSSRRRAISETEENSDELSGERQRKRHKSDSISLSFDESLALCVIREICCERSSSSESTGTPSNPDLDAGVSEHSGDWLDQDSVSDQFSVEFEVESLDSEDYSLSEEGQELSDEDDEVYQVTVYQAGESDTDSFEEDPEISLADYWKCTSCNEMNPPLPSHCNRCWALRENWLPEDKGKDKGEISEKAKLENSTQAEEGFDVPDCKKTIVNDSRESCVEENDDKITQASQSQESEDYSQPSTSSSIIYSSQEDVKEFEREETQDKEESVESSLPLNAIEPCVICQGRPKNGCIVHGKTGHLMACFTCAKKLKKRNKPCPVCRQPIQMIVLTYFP
Chain of E3 ubiquitin-protein ligase Mdm2/Protein Mdm4 (O15151 whole entry): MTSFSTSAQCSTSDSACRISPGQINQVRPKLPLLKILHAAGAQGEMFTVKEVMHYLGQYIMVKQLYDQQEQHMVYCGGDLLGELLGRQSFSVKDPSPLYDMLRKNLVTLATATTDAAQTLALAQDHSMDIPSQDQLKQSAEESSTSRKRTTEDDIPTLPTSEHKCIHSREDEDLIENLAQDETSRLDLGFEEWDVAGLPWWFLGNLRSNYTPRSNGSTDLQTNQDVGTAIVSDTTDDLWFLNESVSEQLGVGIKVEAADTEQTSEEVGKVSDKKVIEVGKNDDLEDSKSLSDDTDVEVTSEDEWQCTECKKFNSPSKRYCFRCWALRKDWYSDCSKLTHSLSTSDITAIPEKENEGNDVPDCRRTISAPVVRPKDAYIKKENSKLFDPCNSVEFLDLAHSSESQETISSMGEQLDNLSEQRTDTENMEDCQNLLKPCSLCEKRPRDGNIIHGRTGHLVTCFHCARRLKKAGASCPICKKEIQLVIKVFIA
Chain of G-protein coupled receptor 55 (Q9Y2T6 whole entry): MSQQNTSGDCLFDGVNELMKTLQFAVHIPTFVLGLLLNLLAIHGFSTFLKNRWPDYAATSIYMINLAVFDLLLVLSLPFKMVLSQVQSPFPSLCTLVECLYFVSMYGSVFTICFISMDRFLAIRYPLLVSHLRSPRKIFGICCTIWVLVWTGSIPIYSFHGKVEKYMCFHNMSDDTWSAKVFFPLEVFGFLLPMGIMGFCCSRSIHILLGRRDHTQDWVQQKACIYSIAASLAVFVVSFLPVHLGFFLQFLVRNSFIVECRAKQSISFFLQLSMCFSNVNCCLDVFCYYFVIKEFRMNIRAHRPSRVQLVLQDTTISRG

On to `S=C(c1cn(CCOc2ccccc2)c2ccccc12)N1CCOCC1`, for which the IC50 in test [1] was > 100 µM (inactive); in [2] it was > 99 µM (inactive); in [3], 2.35 µM (active); in test [4], > 99 µM (inactive).
On to `COc1ccc(/C=C2\SC(=S)N(CCC(=O)N3CCOCC3)C2=O)cc1`, for which the EC50 with T-cell was 16.2 µM (active).
As to `Cc1cccc(N2CCN(C(=O)c3cccc(S(=O)(=O)N(C)C)c3)CC2)c1C`, the IC50 (at Cannabinoid receptor 2 [5]; at Cannabinoid receptor 1 [9]; in test [11]) was > 32 µM (inactive) throughout. Besides, the EC50 in test [6] was 3.12 µM (active); at Cannabinoid receptor 2 [7] it was > 32 µM (inactive); in [8], > 32 µM (inactive); at Cannabinoid receptor 1 [10], > 32 µM (inactive).
`O=C(CN1CCCc2ccccc21)N/N=C/c1c(O)ccc2ccccc12`: the EC50 in [12] was > 160 µM (inconclusive); in “cells [13]”, 60.1 µM (active); in test [14] it was 1.91 µM (active); in “cells [15]”, > 350 µM (not active). Moreover, the AC50 in test [16] is 1.83 µM (active). Also, the IC50 in test [17] was 2.68 µM (active).
